What was measured:
[1] = system: cotton-pellet-induced granuloma; assay: cotton pellet granuloma bioassay, topical anti-inflammatory activity (inhibitory effect on granuloma weight); type: in vivo, Male Wistar rats; conditions: for Topical anti-inflammatory activity (Cotton Pellet), ED50: local application on implanted pellet, 4 dosage levels, 7 days; for Therapeutic index systemic ED50 / topical ED50: thymus inhibition ED50 / cotton pellet ED50, 10080 min
Description: (§1) The glucocorticoid activity of these products was studied in comparison with that of budesonide: pregna-1,4-diene-3,20-dione, 16,17-butylidenebis(oxy)-11-21-dihydroxy-(11β,16α). The pharmacologic action on the acetonides triamcinolone acetonide and flunisolide was also studied.
(§2) Anti-inflammatory effects of the compounds were screened in the cotton pellet granuloma bioassay for identification of lead compounds. (Meier et al., Eperimentia 6, 469, 1950). Male Wistar rats were used, ranging in weight between 90 and 120 g, at the rate of 10 animals per group, previously identified and quartered in individual cages. The animals had free access to feed and drink throughout the trial.
(§3) Cotton pellets weighing exactly 20 mg were prepared, sterilized for 2 hr. at 160° C. soaked with 50 λl solution of the product or with the solvent before implantation, and subsequently the solvent is evaporated before application. The implantation was performed subcutaneously in the axillary zone of the animals previously anesthetized with ether (right axilla pellet with product, left axilla pellet with solvent). Animals in which pellets without product were implanted were used as controls.
(§4) The drug was applied in alcohol solution at 4 dosage levels. Once the pellets were implanted, the animals were kept under normal rearing conditions, isolated for 7 days and then weighed, after which they were sacrificed by exsanguination.
The topical activity was determined by the inhibitory effect on the weight of the cotton-pellet-induced granuloma; the granulomas were extracted and weighed (pellet and connective tissue surrounding them, dried for 24 hr in a 60° oven, and weighed).
(§5) Anti-inflammatory ED50 (topical effect), thymus inhibition ED50 (systemic effect), therapeutic index (systemic ED50 /topical ED50), and the therapeutic index relative to budesonide (=1).
(§6) All of the ED50 values were calculated from the linear regression lines with the confidence limits.

thymus = system: thymus; set-up: species or system Male Wistar rats; conditions: rat, in vivo, 10080 min
Description: as §1, with “All of the steroids described in this invention are pharmacologically active compounds. The glucocorticoid” for “The glucocorticoid”
as §2, §3, §4
Extraction and weighing of the thymus and adrenals were performed in all animals and a fluorometric determination of the cortisol plasma levels was made. We consider the variation in these parameters indicative of the systemic glucocorticoid activity of the products.
as §5, §6

[2] = corticosteroids used in aerosol form; cited from earlier work

Question: For `CCCCC1OC2CC3C4CCC5=CC(=O)C=CC5(C)C4C(O)CC3(C)C2(C(=O)COC(C)=O)O1` (centres unmarked) [Compound 12], which “Topical anti-inflammatory activity (Cotton Pellet), ED50” value (shortened to “Topical anti-inflammatory activity”) [1] is on record?
Answer: The value was 74.7 μg/pellet.

Question: And the “Therapeutic index systemic ED50 / topical ED50” value [1]?
Answer: The value was 7.9.

Question: And the “Systemic glucocorticoid activity (Thymus inhibition), ED50” value (thymus)?
Answer: Its value is 592.2 μg/pellet.

Question: What does the source list for `CC1(C)O[C@@H]2C[C@H]3[C@@H]4C[C@H](F)C5=CC(=O)C=C[C@]5(C)[C@H]4[C@@H](O)C[C@]3(C)[C@]2(C(=O)CO)O1` [FLUNISOLIDE, flunisolide, reference compound]?
Answer: Topical anti-inflammatory activity (Cotton Pellet), ED50 [1]: 351.6 μg/pellet; Therapeutic index systemic ED50 / topical ED50 [1]: 0.44; Systemic glucocorticoid activity (Thymus inhibition), ED50 (thymus): 156 μg/pellet; effect in aerosol form [2]: highly positive effect

Question: With `CCCC1O[C@@H]2C[C@H]3[C@@H]4CCC5=CC(=O)C=C[C@]5(C)[C@H]4[C@@H](O)C[C@]3(C)[C@]2(C(=O)CO)O1` (stereo partly drawn) [BUDESONIDE, pregna-1,4-diene-3,20-dione, 16,17-butylidenebis(oxy)-11-21-dihydroxy-(11β,16α), reference compound] as the compound, how does the “Topical anti-inflammatory activity” value [1] read?
Answer: Its value is 163.6 μg/pellet.

Question: And the “Therapeutic index systemic ED50 / topical ED50” value [1]?
Answer: The value was 1.09.

Question: And the “Systemic glucocorticoid activity (Thymus inhibition), ED50” value (thymus)?
Answer: Its value is 178.6 μg/pellet.

Question: What about the “effect in aerosol form” value [2] of the same compound?
Answer: The value was “highly positive effect”.

Question: For `CC1(C)O[C@@H]2C[C@H]3[C@@H]4CCC5=CC(=O)C=C[C@]5(C)[C@@]4(F)[C@@H](O)C[C@]3(C)[C@]2(C(=O)CO)O1` (stereo in doubt) [TRIAMCINOLONE ACETONIDE, triamcinolone acetonide, reference compound], which “Topical anti-inflammatory activity” value [1] is on record?
Answer: The value was 220.7 μg/pellet.

Question: And the “Therapeutic index systemic ED50 / topical ED50” value [1]?
Answer: The value was 0.7.

Question: And the “Systemic glucocorticoid activity (Thymus inhibition), ED50” value (thymus)?
Answer: The value was 156.4 μg/pellet.

Question: And the “effect in aerosol form” value [2]?
Answer: Its value is “highly positive effect”.

Question: What does the source list for `CC(C)C(=O)OCC(=O)C12OC(C3CCCCC3)OC1CC1C3CC(F)C4=CC(=O)C=CC4(C)C3(F)C(O)CC12C` [Compound 14, (22S)-pregna-1,4-diene-3,20-dione-16,17-(cyclohexylmethylidine)-bis-(oxy)-6,9-difluoro-11-hydroxy-21-(s-methyl-1-oxo-propoxy)-(11β,16α)]?
Answer: Topical anti-inflammatory activity (Cotton Pellet), ED50 [1]: 3.6 μg/pellet; Therapeutic index systemic ED50 / topical ED50 [1]: 13.6; Systemic glucocorticoid activity (Thymus inhibition), ED50 (thymus): 49 μg/pellet

Question: For `CC(C)C(=O)OCC(=O)C12OC(C3CCCCC3)OC1CC1C3CCC4=CC(=O)C=CC4(C)C3C(O)CC12C` [Compound 7, (22R,S)-pregna 1,4-diene-3,20-dione, 16,17-[[cyclohexylmethylidyne]bis (oxy)]-11-hydroxy-21-(2-methyl-1-oxo-propoxy)-(11β,16α)], which “Topical anti-inflammatory activity” value [1] is on record?
Answer: The value was 21.7 μg/pellet.

Question: And the “Therapeutic index systemic ED50 / topical ED50” value [1]?
Answer: The value was 28.3.

Question: And the “Systemic glucocorticoid activity (Thymus inhibition), ED50” value (thymus)?
Answer: The value was 614.7 μg/pellet.

Question: For `CC(C)C(=O)OCC(=O)C12OC(C3CCCCC3)OC1CC1C3CC(F)C4=CC(=O)C=CC4(C)C3(F)C(O)CC12C` [Compound 13, (22R,S)-pregna 1,4-diene-3,20-dione-16,17-(cyclohyxylmethylidine)-bis-(oxy)-6,9-difluoro-11-hydroxy-21-(methyl-1-oxo-propoxy)-(11β,16α)], which “Topical anti-inflammatory activity” value [1] is on record?
Answer: The value was 4.5 μg/pellet.

Question: And the “Therapeutic index systemic ED50 / topical ED50” value [1]?
Answer: Its value is 12.

Question: And the “Systemic glucocorticoid activity (Thymus inhibition), ED50” value (thymus)?
Answer: Its value is 54 μg/pellet.

Question: With `CCCCC1OC2CC3C4CCC5=CC(=O)C=CC5(C)C4C(O)CC3(C)C2(C(=O)COC(C)=O)O1` [Compound 11, (22S)-pregna 1,4-diene-3,20-dione-21-(acetyloxy)-11-hydroxy-16,17-(pentylidene)-bis-(oxy)-(11β,16α)] as the compound, how does the “Topical anti-inflammatory activity” value [1] read?
Answer: The value was 43 μg/pellet.

Question: What about the “Therapeutic index systemic ED50 / topical ED50” value [1] of the same compound?
Answer: The value was 12.9.

Question: What about the “Systemic glucocorticoid activity (Thymus inhibition), ED50” value (thymus) of the same compound?
Answer: The value was 555.3 μg/pellet.

Question: Which “Topical anti-inflammatory activity” value [1] does the source give for `CC(C)C(=O)OCC(=O)C12OC(C3CCCCC3)OC1CC1C3CC(F)C4=CC(=O)C=CC4(C)C3(F)C(O)CC12C` (centres unmarked) [Compound 15] here?
Answer: Its value is 5.2 μg/pellet.

Question: What about the “Therapeutic index systemic ED50 / topical ED50” value [1] of the same compound?
Answer: The value was 10.8.

Question: What about the “Systemic glucocorticoid activity (Thymus inhibition), ED50” value (thymus) of the same compound?
Answer: The value was 56.3 μg/pellet.

Question: For `CC(C)C(=O)OCC(=O)C12OC(C3CCCCC3)OC1CC1C3CCC4=CC(=O)C=CC4(C)C3C(O)CC12C` (centres unmarked) [Compound 9], which “Topical anti-inflammatory activity” value [1] is on record?
Answer: The value was 25.4 μg/pellet.

Question: What about the “Therapeutic index systemic ED50 / topical ED50” value [1] of the same compound?
Answer: The value was 26.2.

Question: What about the “Systemic glucocorticoid activity (Thymus inhibition), ED50” value (thymus) of the same compound?
Answer: The value was 667.1 μg/pellet.

Question: With `CC(C)C(=O)OCC(=O)C12OC(C3CCCCC3)OC1CC1C3CCC4=CC(=O)C=CC4(C)C3C(O)CC12C` [Compound 8, (22,S)-pregna 1,4-diene-3,20-dione 16,17-[[cyclohexyl-methylidyne]bis (oxy)]-11-hydroxy-21-(2-methyl-1-oxo-propoxy)-(11β,16α)] as the compound, how does the “Topical anti-inflammatory activity” value [1] read?
Answer: Its value is 20.5 μg/pellet.

Question: What about the “Therapeutic index systemic ED50 / topical ED50” value [1] of the same compound?
Answer: The value was 29.6.

Question: And the “Systemic glucocorticoid activity (Thymus inhibition), ED50” value (thymus)?
Answer: The value was 608 μg/pellet.

Question: With `CCC(=O)OCC(=O)[C@@]1(OC(=O)CC)[C@@H](C)C[C@H]2[C@@H]3CCC4=CC(=O)C=C[C@]4(C)[C@@]3(Cl)[C@@H](O)C[C@@]21C` [beclomethasone dipropionate] as the compound, how does the “effect in aerosol form” value [2] read?
Answer: The value was “highly positive effect”.

Question: For `CCCCC1OC2CC3C4CCC5=CC(=O)C=CC5(C)C4C(O)CC3(C)C2(C(=O)COC(C)=O)O1` [Compound 10, (22R,S)-of pregna 1,4-diene-3,20-dione-21-(acetyloxy)-11-hydroxy-16,17-(pentylidene) bis(oxy)-(11β,16α)], which “Topical anti-inflammatory activity” value [1] is on record?
Answer: The value was 59.9 μg/pellet.

Question: And the “Therapeutic index systemic ED50 / topical ED50” value [1]?
Answer: The value was 9.7.

Question: What about the “Systemic glucocorticoid activity (Thymus inhibition), ED50” value (thymus) of the same compound?
Answer: The value was 583.2 μg/pellet.

Question: For `CCCCC(=O)O[C@]1(C(=O)CO)[C@@H](C)C[C@H]2[C@@H]3CCC4=CC(=O)C=C[C@]4(C)[C@@]3(F)[C@@H](O)C[C@@]21C` [betamethasone valerate], which “effect in aerosol form” value [2] is on record?
Answer: Its value is “highly positive effect”.

Source: patent US5482934A, “Pregna-1,4-diene3,20-dione-16-17-acetal-21 esters, process for their preparation, composition, and methods for the treatment of inflammatory conditions” (priority 1994, dated 1996)
